Publication PMC9606955, “In Vitro Activity of Essential Oils Distilled from Colombian Plants against Candida auris and Other Candida Species with Different Antifungal Susceptibility Profiles” (Molecules, 2022)
≈ marks a conversion by molar mass, not a printed value.

Legend:
[1] = tested on: C. tropicalis ATCC 200956; test: MIC, CLSI M27 broth microdilution; assay type: cell-based, Candida tropicalis; conditions: C. tropicalis ATCC 200956, EOs and terpenes
Description: (§1) The fungal strains used in this study were C. albicans ATCC 10231, C. albicans ATCC 64550, C. parapsilosis ATCC 22019, C. tropicalis ATCC 750, C. tropicalis ATCC 200956 (resistant to azoles and AMB), C. glabrata LMDM 34 (resistant to echinocandins), C. metapsilosis MUM 15.12, C. orthopsilosis MUM 17.13, C. lusitaniae MUM 17.08, C. krusei ATCC 6258 (Issatchenkia orientalis ATCC 6258), and C. auris CDC B11903. Additionally, nine clinical isolates were included: C. parapsilosis Synlab 406 (FLC-resistant) and eight C. auris isolates identified by MALDI-TOF MS (Bruker Daltonics, Bremen, Germany) according to Zhao et al.. These yeasts were cultured on Sabouraud Dextrose Agar (SDA; Sigma-Aldrich, St. Louis, MO, USA) for 24 h at 35 °C.
(§2) Antifungal susceptibility testing was performed according to Clinical and Laboratory Standards Institute M27, 4th Edition (CLSI standard M27, 4th Edition). Some modifications were applied for evaluation of the antifungal activity of EOs and terpenes. Initially, a screening was carried out to determine the antifungal activity of the EOs and of commercial terpenes. Stock concentrations of EOs and terpenes were prepared at 512 µg/mL and an inoculum of 2.5 × 10^3 CFU/mL of each yeast was prepared in RPMI 1640-MOPS (Sigma- Aldrich St. Louis, MO, USA). Thereafter, 100 µL of each stock solution of EOs or terpenes was dispensed in 96-well microdilution plates (Corning®, Costar®, NY, USA) and 100 µL of each yeast inoculum was added. […] Microdilution plates were incubated at 35 °C and, after 24 h, the presence or absence of growth was visually checked using a manual mirror viewer and then compared with the amount of growth in the control (no EO or terpene). Compounds able to inhibit yeast growth were tested to determine the minimal inhibitory concentration (MIC) as follows: 100 µL of 10 two-fold dilutions of the EOs or commercial terpenes was dispensed in 96-well microplates and the yeast inoculum was added. Final concentrations of the EOs or terpenes ranged from 0.5 µg/mL to 256 µg/mL. Microdilution plates were incubated at 35 °C for 24 h. MICs were visually determined at the lowest concentration that produced visual inhibition compared to the growth control. The assays were performed at least three times in duplicate on different days. The results were expressed as geometric means (GM) and ranges. As an antifungal susceptibility testing control, the activity of ITC and AMB against the reference strains C. krusei ATCC 6258 and C. parapsilosis ATCC 22019 was evaluated in all experiments following the CLSI standard M27, 4th Edition. It was mandatory that the MIC values remained in the accepted range.

Candida spp. [2] = test: MIC, CLSI M27 broth microdilution, all Candida spp. of Tables 3 and 4 together; assay type: cell-based; conditions: over all strains of Table 3 and Table 4
Description: as §1
(§3) Antifungal susceptibility testing was performed according to Clinical and Laboratory Standards Institute M27, 4th Edition (CLSI standard M27, 4th Edition). […] MICs were visually determined at the lowest concentration that produced visual inhibition compared to the growth control. […] The results were expressed as geometric means (GM) and ranges. As an antifungal susceptibility testing control, the activity of ITC and AMB against the reference strains C. krusei ATCC 6258 and C. parapsilosis ATCC 22019 was evaluated in all experiments following the CLSI standard M27, 4th Edition. […]

[3] = tested on: C. metapsilosis MUM 15.12; test: MIC, CLSI M27 broth microdilution; assay type: cell-based, Candida metapsilosis; conditions: C. metapsilosis MUM 17.13 (Table 3), EOs and terpenes, 24 h, top concentration 256 µg/mL
Description: as §1, §2

[4] = tested on: C. orthopsilosis MUM 17.13; test: MIC, CLSI M27 broth microdilution; assay type: cell-based, Candida orthopsilosis; conditions: C. orthopsilosis MUM 15.12 (Table 3), EOs and terpenes, 24 h, top concentration 256 µg/mL
Description: as §1, §2

[5] = tested on: C. parapsilosis Synlab 406; test: MIC, CLSI M27 broth microdilution; assay type: cell-based, Candida parapsilosis; conditions: C. parapsilosis Synlab 406, EOs and terpenes
Description: as §1, §2

HaCaT cell line = test: Cytotoxicity, MTT assay; conditions: MTT, 24 h treatment, HaCaT keratinocytes
Description: (§4) Cells were cultured in Dulbecco’s Modified Eagle Medium (DMEM; Sigma-Aldrich, St. Louis, MO, USA) supplemented with 10% fetal bovine serum (Invitrogen, Carlsbad, CA, USA), 1% penicillin, streptomycin, and neomycin (Invitrogen, Carlsbad, CA, USA), and 1% L-glutamine (Invitrogen, Carlsbad, CA, USA) at 37 °C in a humidified atmosphere of 5% CO2. […] Afterwards, the culture medium was removed and 3-(4.5-dimethylthiazol-2-yl)-2.5-diphenyltetrazolium bromide (MTT) (Sigma-Aldrich, St. Louis, MO, USA) at 5 mg/mL was added at 37 °C for 2 h. Subsequently, DMSO was added to dissolve the formazan crystals. Finally, the absorbances were measured with a Multiskan SkyHigh Microplate Spectrophotometer (Thermo Fisher Scientific, Waltham, MA, USA) at λ = 570 nm. The CC50 values were obtained by linear regression analysis with concentration–response curves, which were performed with absorbance data using GraphPad Prism software (Prism 9.3.0, San Diego, CA, USA). The assays were conducted at two separate times in triplicate. The data were expressed as means.

C. lusitaniae MUM 17.08 = test: MIC, CLSI M27 broth microdilution; assay type: cell-based, Candida lusitaniae; conditions: C. lusitaniae MUM 17.08, EOs and terpenes
Description: as §1, §2

C. auris Ca 32 = test: MIC, CLSI M27 broth microdilution; assay type: cell-based, Candida auris; conditions: C. auris Ca 32, EOs and terpenes
Description: as §1, §2

C. auris Ca 46 = test: MIC, CLSI M27 broth microdilution; assay type: cell-based, Candida auris; conditions: C. auris Ca 46, EOs and terpenes, 24 h, top concentration 256 µg/mL
Description: as §1, §2

C. auris Ca 13 = test: MIC, CLSI M27 broth microdilution; assay type: cell-based, Candida auris; conditions: C. auris Ca 13, EOs and terpenes
Description: as §1, §2

C. auris Ca 1 = test: MIC, CLSI M27 broth microdilution; assay type: cell-based, Candida auris; conditions: C. auris Ca 1, EOs and terpenes, 24 h, top concentration 256 µg/mL
Description: as §1, §2

C. auris Ca 45 = test: MIC, CLSI M27 broth microdilution; assay type: cell-based, Candida auris; conditions: C. auris Ca 45, EOs and terpenes, 24 h, top concentration 256 µg/mL
Description: as §1, §2

C. auris Ca 41 = test: MIC, CLSI M27 broth microdilution; assay type: cell-based, Candida auris; conditions: C. auris Ca 41, EOs and terpenes, 24 h, top concentration 256 µg/mL
Description: as §1, §2

C. auris Ca 17 = test: MIC, CLSI M27 broth microdilution; assay type: cell-based, Candida auris; conditions: C. auris Ca 17, EOs and terpenes, 24 h, top concentration 256 µg/mL
Description: as §1, §2

C. auris CDC B11903 = test: MIC, CLSI M27 broth microdilution; assay type: cell-based, Candida auris; conditions: C. auris CDC B11903, EOs and terpenes, 24 h, top concentration 256 µg/mL
Description: as §1, §2

C. auris Ca 9 = test: MIC, CLSI M27 broth microdilution; assay type: cell-based, Candida auris; conditions: C. auris Ca 9, EOs and terpenes
Description: as §1, §2

C. krusei ATCC 6258 = test: MIC, CLSI M27 broth microdilution; assay type: cell-based, Candida krusei; conditions: C. krusei ATCC 6258; EOs and terpenes; 24 h; top concentration 256 µg/mL
Description: as §1, §2

Candida spp. [6] = test: Screening of antifungal activity at 256 µg/mL against twenty strains; assay type: cell-based; conditions: screening at 256 µg/mL
Description: as §1
Antifungal susceptibility testing was performed according to Clinical and Laboratory Standards Institute M27, 4th Edition (CLSI standard M27, 4th Edition). Some modifications were applied for evaluation of the antifungal activity of EOs and terpenes. Initially, a screening was carried out to determine the antifungal activity of the EOs and of commercial terpenes. Stock concentrations of EOs and terpenes were prepared at 512 µg/mL and an inoculum of 2.5 × 10^3 CFU/mL of each yeast was prepared in RPMI 1640-MOPS (Sigma- Aldrich St. Louis, MO, USA). Thereafter, 100 µL of each stock solution of EOs or terpenes was dispensed in 96-well microdilution plates (Corning®, Costar®, NY, USA) and 100 µL of each yeast inoculum was added. […] MICs were visually determined at the lowest concentration that produced visual inhibition compared to the growth control. […] The results were expressed as geometric means (GM) and ranges. As an antifungal susceptibility testing control, the activity of ITC and AMB against the reference strains C. krusei ATCC 6258 and C. parapsilosis ATCC 22019 was evaluated in all experiments following the CLSI standard M27, 4th Edition. […]

C. auris = test: MIC, CLSI M27 broth microdilution, several C. auris strains together; assay type: cell-based, Candida auris; conditions: over all C. auris strains of Table 4
Description: as §1, §3

in vitro = conditions: human
Description: as §4

[7] = 24 h, top concentration 256 µg/mL

Compound: C=C(C)[C@H]1CC=C(C)CC1 [Limonene, limonene]
- GM MIC [1, 7]: 64 µg/mL
- MIC Range (Candida spp. [2]): 16 to 64 µg/mL
- GM MIC [3]: 64 µg/mL
- GM MIC [4]: 16 µg/mL
- GM MIC [5, 7]: 64 µg/mL
- HaCaT Cells Mean CC50 (HaCaT cell line): 400.5 µg/mL
- Range MIC (C. lusitaniae MUM 17.08): 16 to 32 µg/mL
- GM MIC (C. lusitaniae MUM 17.08; [7]): 22.6 µg/mL
- Range MIC (C. auris Ca 32): 16 to 32 µg/mL
- GM MIC (C. auris Ca 32; [7]): 22.6 µg/mL
- GM MIC (C. auris Ca 46): 16 µg/mL
- Range MIC (C. auris Ca 13): 16 to 32 µg/mL
- GM MIC (C. auris Ca 13; [7]): 22.6 µg/mL
- GM MIC (C. auris Ca 1): 64 µg/mL
- GM MIC (C. auris Ca 45): 16 µg/mL
- GM MIC (C. auris Ca 41): 16 µg/mL
- GM MIC (C. auris Ca 17): 64 µg/mL
- GM MIC (C. auris CDC B11903): 64 µg/mL
- Range MIC (C. auris Ca 9): 16 to 32 µg/mL
- GM MIC (C. auris Ca 9; [7]): 22.6 µg/mL
- GM MIC (C. krusei ATCC 6258): 32 µg/mL
- antifungal activity in screening (Candida spp. [6]): active against all tested Candida spp.
- MIC Range (C. auris): 16 to 64 µg/mL

Compound: C=C(C)[C@@H]1CC=C(CO)CC1 [Perillyl alcohol, perillyl alcohol]
- Range MIC [1]: 128 to 256 µg/mL
- MIC ([1]; Candida tropicalis, ATCC200956, 24 h, top concentration 256 µg/mL, read-out: GM MIC): 181 µg/mL (≈ 1190 µM)
- CC50 at 24 h (in vitro): 401 µg/mL (≈ 2630 µM)
- MIC ([3]; Lodderomyces metapsilosis, MUM15.12, read-out: GM MIC): 256 µg/mL (≈ 1680 µM)
- MIC ([4]; Lodderomyces orthopsilosis, MUM17.13, read-out: GM MIC): 256 µg/mL (≈ 1680 µM)
- Range MIC [5]: 64 to 128 µg/mL
- MIC ([5]; Lodderomyces parapsilosis, SYNLAB406, 24 h, top concentration 256 µg/mL, read-out: GM MIC): 90.5 µg/mL (≈ 594 µM)
- Range MIC (C. lusitaniae MUM 17.08): 128 to 256 µg/mL
- MIC (C. lusitaniae MUM 17.08; Clavispora lusitaniae, MUM17.08, 24 h, top concentration 256 µg/mL, read-out: GM MIC): 181 µg/mL (≈ 1190 µM)
- MIC (C. auris Ca 32; Candidozyma auris, CA32, 24 h, top concentration 256 µg/mL, read-out: GM MIC): 128 µg/mL (≈ 841 µM)
- MIC (C. auris Ca 46; Candidozyma auris, CA46, read-out: GM MIC): 256 µg/mL (≈ 1680 µM)
- MIC (C. auris Ca 13; Candidozyma auris, CA13, 24 h, top concentration 256 µg/mL, read-out: GM MIC): 256 µg/mL (≈ 1680 µM)
- MIC (C. auris Ca 1; Candidozyma auris, CA1, read-out: GM MIC): 256 µg/mL (≈ 1680 µM)
- MIC (C. auris Ca 45; Candidozyma auris, CA45, read-out: GM MIC): 256 µg/mL (≈ 1680 µM)
- MIC (C. auris Ca 41; Candidozyma auris, CA41, read-out: GM MIC): 128 µg/mL (≈ 841 µM)
- MIC (C. auris Ca 17; Candidozyma auris, CA17, read-out: GM MIC): 256 µg/mL (≈ 1680 µM)
- MIC (C. auris CDC B11903; Candidozyma auris, CDCB11903, read-out: GM MIC): 256 µg/mL (≈ 1680 µM)
- MIC (C. auris Ca 9; Candidozyma auris, CA9, 24 h, top concentration 256 µg/mL, read-out: GM MIC): 128 µg/mL (≈ 841 µM)
